Measured values taken from patent publication US20200247897A1, “THERAPEUTIC ANTIBODIES BASED ON MUTATED IGG HEXAMERS” (GENMAB B.V., priority 2017, published 2020).

Test system: panel of 235 cell lines representing 14 tumor lineages
Assay: ATPlite growth inhibition screening of a human cancer cell line panel (Horizon Discovery)
Assay type: cell-based
Experimental: A 72 hour ATPlite assay (except for DLD-1 and HCT116 cell lines, for which a 120 hour assay was performed) with growth inhibition analysis was performed in two parts at Horizon Discovery Ltd, UK. Samples were tested as four replicates in 384-well assay plates. Serial dilution series of antibody, starting from 0.072 μM final concentration was used for all tested cell lines. For TRAIL (Invitrogen; Cat # PHC1634) serial dilution series starting from 0.01 μM final concentration for the cell lines tested in the first part and 0.17 μM final concentration for the cell lines tested in the second part of the screening was used.

[1] = 59M, ovary cancer, screening #1
[2] = 769-P, kidney cancer, screening #2
[3] = 786-0, kidney cancer, screening #2
[4] = 5637, bladder cancer, screening #2
[5] = A172, neural tissue cancer, screening #2
[6] = ACHN, kidney cancer, screening #2
[7] = CAL-54, kidney cancer, screening #1
[8] = COLO-783, melanoma, screening #1
[9] = COR-L23-CPR, NSCLC, screening #1
[10] = COV434, ovary cancer, screening #1
[11] = COV644, ovary cancer, screening #1
[12] = G-402, kidney cancer, screening #2
[13] = HCC1937, breast cancer (TNBC), screening #2
[14] = HT-1197, bladder cancer, screening #2
[15] = HT-1376, bladder cancer, screening #2
[16] = Hs 294T, melanoma, screening #1
[17] = HuP-T3, pancreatic cancer, screening #1
[18] = J82, bladder cancer, screening #1
[19] = JHOM-1, ovary cancer, screening #1

In the case of “TRAIL: natural DR5 ligand, recombinant human TRAIL/APO-2L”, the IC50 [1] is reported as 49 pM, the “Max Inhibition” value [1] is reported as 98.5% and the IC50 [2] is reported as 1940 pM. The “Max Inhibition” value [2] was 39.4%, the IC50 [3] was 288000 pM and the “Max Inhibition” value [3] was 2.6%. The IC50 [4] was 60 pM, the “Max Inhibition” value [4] was 99.1% and the IC50 [5] was 29 pM. The “Max Inhibition” value [5] was 98.2%, the “Max Inhibition” value (A375, melanoma, screening #1) was 47.1% and the IC50 (A498, kidney cancer, screening #2) was 79 pM. For the same substance, the IC50 (A704, kidney cancer, screening #1) was 3440 pM, the IC50 [6] was 356 pM and the “Max Inhibition” value [6] was 32.4%. The “Max Inhibition” value (BEN, NSCLC, screening #1) was 8.1%, the IC50 (BT-20, breast cancer (TNBC), screening #2) was 89 pM and the IC50 (BT-549, breast cancer (TNBC), screening #2) was 285 pM. The “Max Inhibition” value (BxPC-3, pancreatic cancer, screening #1) was 46.5%, the “Max Inhibition” value (CAKI-2, kidney cancer, screening #1) was 5.7% and the “Max Inhibition” value (CAL-12T, NSCLC, screening #1) was 11.9%. For the same substance, the IC50 [7] was 268 pM, the “Max Inhibition” value [7] was 71.6% and the “Max Inhibition” value (CAPAN-2, pancreatic cancer, screening #1) was 4.8%. The “Max Inhibition” value (CFPAC-1, pancreatic cancer, screening #1) was 13.2%, the IC50 (CL-11, colorectal cancer, screening #1) was 1320 pM and the IC50 (CL-34, colorectal cancer, screening #1) was 24 pM. For the same substance, the IC50 (CL-40, colorectal cancer, screening #1) was 1980 pM, the “Max Inhibition” value (COLO858, melanoma, screening #1) was 12.6% and the IC50 (COLO-201, colorectal cancer, screening #1) was 168 pM. The IC50 (COLO-205, colorectal cancer, screening #1) was 2270 pM, the IC50 (COLO-206F, colorectal cancer, screening #1) was 146 pM and the “Max Inhibition” value (COLO-679, melanoma, screening #1) was 24.9%. The “Max Inhibition” value (COLO-699, NSCLC, screening #1) was 2.8%, the IC50 [8] was 224 pM and the “Max Inhibition” value [8] was 80.9%. For the same substance, the “Max Inhibition” value (COLO-800, melanoma, screening #1) was 33.5%, the “Max Inhibition” value (COLO-818, melanoma, screening #1) was 7.8% and the “Max Inhibition” value (COLO-849, melanoma, screening #1) was 17.6%. The IC50 [9] was 5480 pM, the “Max Inhibition” value [9] was 58.4% and the “Max Inhibition” value (COR-L105, NSCLC, screening #1) was 35.7%. The IC50 [10] was 395 pM, the “Max Inhibition” value [10] was 73.1% and the “Max Inhibition” value (COV504, ovary cancer, screening #1) was 11.7%. For the same substance, the IC50 [11] was 271 pM, the “Max Inhibition” value [11] was 74.9% and the “Max Inhibition” value (Calu-1, NSCLC, screening #1) was 22.0%. The IC50 (DBTRG-05MG, neural tissue cancer, screening #2) was 87 pM, the IC50 (DLD-1, colorectal cancer, screening #1) was 3950 pM and the IC50 (DLD-1_BRCA2 (−/−), colorectal cancer, screening #1) was 516 pM. The IC50 (DU-4475, breast cancer (TNBC), screening #2) was 79 pM, the IC50 (DV-90, NSCLC, screening #1) was 1190 pM and the “Max Inhibition” value (DV-90, NSCLC, screening #1) was 96.1%. The “Max Inhibition” value (EPLC-272H, NSCLC, screening #1) was 51.7%, the IC50 (FTC-238, head and neck cancer, screening #1) was 3920 pM and the IC50 (G-401, kidney cancer, screening #2) was 68 pM. For the same substance, the IC50 [12] was 173 pM, the “Max Inhibition” value [12] was 15.0% and the IC50 (GP2D, colorectal cancer, screening #1) was 3 pM. It also gave an IC50 (GSU, gastric cancer, screening #1) of 454 pM, an IC50 (H4, neural tissue cancer, screening #2) of 7 pM and an IC50 (HCC38, breast cancer (TNBC), screening #2) of 80 pM. For the same substance, the IC50 (HCC70, breast cancer (TNBC), screening #2) was 347000 pM, the IC50 (HCC1187, breast cancer (TNBC), screening #2) was 66 pM and the IC50 (HCC1806, breast cancer (TNBC), screening #2) was 50 pM. The IC50 [13] was 647 pM, the “Max Inhibition” value [13] was 28.5% and the IC50 (HCT-15, colorectal cancer, screening #1) was 129 pM. For the same substance, the IC50 (HCT-116_ARID1A (Q456*/Q456*), colorectal cancer, screening #1) was 10500 pM, the IC50 (HCT-116_KRAS (+/−), colorectal cancer, screening #1) was 253 pM and the IC50 (HCT-116_PIK3A (+/−)KO mt H1047R, colorectal cancer, screening #1) was 1250 pM. For the same substance, the IC50 (HEC-108, endometrial cancer, screening #1) was 1480 pM, the IC50 (HEC-265, endometrial cancer, screening #1) was 21 pM and the “Max Inhibition” value (HLC-1, NSCLC, screening #1) was 32.6%. The IC50 (HLE, liver cancer, screening #1) was 8360 pM, the IC50 (HMC-1-8, breast cancer (TNBC), screening #2) was 232 pM and the “Max Inhibition” value (HMCB, melanoma, screening #1) was 1.0%. For the same substance, the “Max Inhibition” value (HOP-62, NSCLC, screening #1) was 55.6%, the “Max Inhibition” value (HPAF-II, pancreatic cancer, screening #1) was 13.3% and the IC50 (HRT-186, colorectal cancer, screening #1) was 9240 pM. It also gave an IC50 (HT55, colorectal cancer, screening #1) of 110 pM, an IC50 (HT-115, colorectal cancer, screening #1) of 107 pM and an IC50 [14] of 167 pM. The “Max Inhibition” value [14] was 31.8%, the IC50 [15] was 160000 pM and the “Max Inhibition” value [15] was 10.6%. The IC50 [16] was 19 pM, the “Max Inhibition” value [16] was 91.1% and the “Max Inhibition” value (Hs 936.T, melanoma, screening #1) was 20.7%. The IC50 [17] was 223 pM, the “Max Inhibition” value [17] was 88.4% and the “Max Inhibition” value (IGR-1, melanoma, screening #1) was 23.3%. The “Max Inhibition” value (IGR-37, melanoma, screening #1) was 18.0%, the “Max Inhibition” value (IGR-39, melanoma, screening #1) was 20.1% and the “Max Inhibition” value (IPC-298, melanoma, screening #1) was 5.7%. For the same substance, the IC50 [18] was 33600 pM, the “Max Inhibition” value [18] was 11.5% and the “Max Inhibition” value (JHOC-5, ovary cancer, screening #1) was 18.4%. The IC50 [19] was 596 pM, the “Max Inhibition” value [19] was 58.1% and the “Max Inhibition” value (JHOM-2B, ovary cancer, screening #1) was 21.7%. The “Max Inhibition” value (JHOS-4, ovary cancer, screening #1) was 12.5%, the IC50 (JHUEM-2, endometrial cancer, screening #1) was 165 pM and the “Max Inhibition” value (KLM-1, pancreatic cancer, screening #1) was 12.7%. For the same substance, the IC50 (KNS-81, neural tissue cancer, screening #2) was 13 pM, the “Max Inhibition” value (KP-2, pancreatic cancer, screening #1) was 3.9% and the “Max Inhibition” value (KP-3, pancreatic cancer, screening #1) was 23.5%. For the same substance, the “Max Inhibition” value (KP-4, pancreatic cancer, screening #1) was 23.6%.
